This is an account of results in article PMC6930659, “Antiprotozoal Activity of Turkish Origanum onites Essential Oil and Its Components” (Molecules, 2019).

Converted amounts (≈) assume the structure as drawn. Like-named read-outs stand apart in the source and are kept apart here.

One data set concerns T. b. brucei. Also noted: method as in PMID 29778466. To be noted: blood stream trypomastigotes cultures; AnTart 1 strain, wild type; cited from earlier work.
In data set [1] the test system is T. cruzi Tulahuen strain C2C4. The data set can be described thus: In vitro assay for Trypanosoma cruzi in L-6 cells (β-galactosidase/CPRG). Format: cell-based. To be noted: Trypanosoma cruzi, L6; Tulahuen C2C4 in L-6 cells, 96 h; highest concentration tested 90 μg/mL; means of two determinations ± deviation. The method, then: Rat skeletal myoblasts (L-6 cells) were seeded in 96 well microtiter plates (2000 cells/well) in 100 μL RPMI 1640 medium with 10% FBS and 2 mM L-glutamine for 24 h. After that, the medium was removed and replaced by 100 μL per well containing 5000 trypomastigote forms of T. cruzi Tulahuen strain C2C4, containing the β-galactosidase (Lac Z) gene. The medium was removed from the wells after 48 h, and replaced with 100 μL fresh medium with or without a serial drug dilution of seven 3-fold dilution steps covering a range from 90 to 0.123 μg/mL. After 96 h of incubation, the plates were inspected under an inverted microscope to assure growth of the controls and sterility, after which the substrate CPRG/Nonidet ([…]) was added to all wells. A color reaction developed within 2–6 h and could be read photometrically at 540 nm. Data were transferred into the graphic program Softmax Pro (Molecular Devices Cooperation, Sunnyvale, CA, USA) and the IC50 values were calculated from the sigmoidal dose response curves. Benznidazole was the reference drug.

Data set [2] is described as follows: In vitro assay for cytotoxicity on mammalian cells (resazurin). It is filed as cell-based, rat. To be noted: rat skeletal myoblasts, 72 h, means of two determinations ± deviation, read-out: IC50 Cytotoxicity L6 cells. The method, then: Assays were performed in 96 well microtiter plates (4 × 10^4 L6 cells/well), each well containing 100 μL of RPMI 1640 medium supplemented with 1% L-glutamine (200 mM) and 10% FBS. L6 cells are a primary cell line derived from rat skeletal myoblasts. Serial drug dilutions of seven 3-fold dilution steps covering a range from 90 to 0.123 μg/mL were prepared. After 72 h of incubation, the plates were inspected under an inverted microscope to assure growth of the controls and sterile conditions. Resazurin solution (10 μL) (12.5 mg resazurin in 100 mL double-distilled water) was then added to each well and the plates incubated for another 2 h. The plates were then read with a Spectramax Gemini XS microplate fluorometer (Molecular Devices Cooperation, Sunnyvale, CA, USA) using an excitation wavelength of 536 nm and an emission wavelength of 588 nm. Data were analyzed using the microplate reader software Softmax Pro (Molecular Devices Cooperation, Sunnyvale, CA, USA). From the sigmoidal inhibition curves, the IC50 values were calculated. Podophyllotoxin was the positive control.

Another data set relates to T. cruzi amastigotes. Also on record: method as in doi:10.1080/10412905.2013.820669. To be noted: cited from earlier work.
In a further data set the test system is T. cruzi epimastigotes. Also noted: method as in doi:10.1080/10412905.2013.820669. To be noted: cited from earlier work.
In the next data set the test system is P. falciparum K1 strain. As to the kind of experiment: In vitro assay for Plasmodium falciparum ([3H]-hypoxanthine incorporation). To be noted: K1 strain (chloroquine- and pyrimethamine-resistant), erythrocytic stages, means of two determinations ± deviation, read-out: IC50 Plasmodium falciparum. It is filed as cell-based. The method, then:
Activity against the erythrocytic stages of P. falciparum was determined using an in vitro modified [^3H]-hypoxanthine incorporation assay, using the chloroquine- and pyrimethamine-resistant K1 strain [68]. Compounds were dissolved in DMSO at 10 mg/mL and further diluted in medium before added to parasite cultures incubated in RPMI 1640 medium without hypoxanthine, supplemented with HEPES (5.94 g/l), NaHCO3 (2.1 g/L), neomycin (100 U/mL), AlbumaxR (5 g/L), and washed human red cells A+ at 2.5% haematocrit (0.3% parasitaemia). Serial drug dilutions of seven 3-fold dilution steps covering a range from 90 to 0.123 μg/mL were prepared. The 96 well plates were incubated in a humidified atmosphere at 37 °C; 4% CO2, 3% O2, 93% N2. After 48 h 50 μL of ^3H-hypoxanthine (=0.5 μCi) was added to each well of the plate. The plates were incubated for a further 24 h under the same conditions. The plates were then harvested with a Betaplate™ cell harvester (Wallac, Zurich, Switzerland), and the red blood cells transferred onto a glass fiber filter then washed with distilled water. The dried filters were inserted into a plastic foil with 10 mL of scintillation fluid, and counted in a Betaplate™ liquid scintillation counter (Wallac, Zurich, Switzerland). […] IC50 values were calculated from the sigmoidal inhibition curves using Microsoft Excel. Chloroquine was used as positive control drug.

Data set [3] has as its system L. donovani (strain MHOM/ET/67/L82) amastigotes. The data set can be described thus: In vitro assay for Leishmania donovani axenic amastigotes (resazurin). It is filed as cell-based. The conditions noted are these: axenic amastigotes, 72 h, means of two determinations ± deviation, read-out: IC50 Leishmania donovani. The method, then: Amastigotes of L. donovani (strain MHOM/ET/67/L82) were grown in axenic culture at 37 °C in SM medium at pH 5.4 supplemented with 10% heat-inactivated FBS under an atmosphere of 5% CO2. Culture medium (100 μL) with 10^5 amastigotes from axenic culture with or without a serial drug dilution was seeded in 96 well microtiter plates. Serial drug was prepared covering a range of dilutions from 90 to 0.123 μg/mL. After 72 h of incubation, the plates were inspected under an inverted microscope to assure growth of the controls and sterile conditions. Subsequently, 10 μL resazurin solution (12.5 mg resazurin dissolved in 100 mL double-distilled water) was added to each well and the plates were incubated for another 2 h. The plates were then read with a Spectramax Gemini XS microplate fluorometer (Molecular Devices Cooperation, Sunnyvale, CA, USA) using an excitation wavelength of 536 nm and an emission wavelength of 588 nm. Data were analyzed using the software Softmax Pro (Molecular Devices Cooperation, Sunnyvale, CA, USA). A decrease of fluorescence (=inhibition) was expressed as percentage of the fluorescence of control cultures and plotted against the drug concentrations. From the sigmoidal inhibition curves, the IC50 values were calculated. Miltefosine was used as a reference drug.
(Alamar Blue is a resazurin reagent that responds to reducing activity.)

In data set [4] the test system is Trypanosoma brucei rhodesiense STIB 900. The data set can be described thus: In vitro assay for Trypanosoma brucei rhodesiense (resazurin). It is filed as cell-based. The method, then: Trypanosoma brucei rhodesiense STIB 900 strain, isolated in 1982 from a human patient in Tanzania and, after several mouse passages, cloned and adapted to axenic culture conditions, was used in this assay. Minimum essential medium (50 μL) supplemented with 25 mM HEPES, 1 g/L additional glucose, 1% MEM non-essential amino acids (100×), 0.2 mM 2-mercaptoethanol, 1 mM Na-pyruvate, and 15% heat inactivated horse serum was added to each well of a 96 well microtiter plate. Serial drug dilutions of seven 3-fold dilution steps covering a range from 90 to 0.123 μg/mL were prepared, and then 4 × 10^4 blood stream forms of T. b. rhodesiense STIB 900 in 50 μL were added to each well and the plate was incubated at 37 °C under a 5% CO2 atmosphere for 72 h. Resazurin solution (resazurin, 12.5 mg in 100 mL double-distilled water) (10 μL) was then added to each well and incubated for a further 2–4 h. At the end of the assay, the plates were read with a Spectramax Gemini XS microplate fluorometer (Molecular Devices Cooperation, Sunnyvale, CA, USA) using an excitation wavelength of 536 nm and an emission wavelength of 588 nm. Data were analyzed using the microplate reader software Softmax Pro (Molecular Devices Cooperation, Sunnyvale, CA, USA). Melarsoprol was used as standard drug.

A further data set relates to T. evansi. Also noted: method as in PMID 26773165. To be noted: cited from earlier work.
Another data set deals with Leishmania. Also on record: method as in PMID 15793164. The conditions noted are these: oral administration in mice for 30 days; cited from earlier work.

One may read the IC50 as the midpoint of a concentration-inhibition curve. On to `CC1=CCC2CC1C2(C)C` (stereo not drawn) [α-Pinene], for which the “IC50 T. b. brucei” value in the data set with T. b. brucei was 2.9 µg/mL (≈ 21.3 µM). The half-maximal inhibitory concentration (IC50) in data set [1] was over 90 µg/mL; with P. falciparum K1 strain it was 10.7 ± 1.2 µg/mL (≈ 78.5 µM); in data set [3], 81.9 ± 9 µg/mL (≈ 601 µM); in data set [4] (Trypanosoma brucei, 72 h, STIB 900 blood stream forms, 72 h; means of two independent determinations ± deviation from the mean; read-out: IC50 Trypanosoma brucei rhodesiense), 0.42 ± 0.24 µg/mL (≈ 3.08 µM). Besides, the concentration for half-maximal inhibition (IC50) at 72 h in [2] (L6 cells (rat skeletal myoblasts)) was found to be 87.8 ± 3 µg/mL (≈ 644 µM). For the same compound, the “IC50 T. cruzi amastigotes” value with T. cruzi amastigotes was 1.92 µg/mL (≈ 14.1 µM). Moreover, the “IC50 T. cruzi epimastigotes” value in the data set with T. cruzi epimastigotes was 2.74 µg/mL (≈ 20.1 µM).

On to `CC1=CC=C(C(C)C)CC1` [α-Terpinene], for which the concentration for half-maximal inhibition (IC50) in [1] was determined as 49.1 ± 7.3 µg/mL (≈ 360 µM); in data set [2] it was 84.7 ± 4.3 µg/mL (≈ 622 µM); in the data set on P. falciparum K1 strain, 3.7 ± 1.5 µg/mL (≈ 27.2 µM); in data set [3], 10.5 ± 1.7 µg/mL (≈ 77.1 µM); in data set [4] (Trypanosoma brucei; STIB 900 blood stream forms, 72 h; means of two independent determinations ± deviation from the mean; read-out: IC50 Trypanosoma brucei rhodesiense), 3.1 ± 1.6 µg/mL (≈ 22.8 µM). For the same compound, in the data set on T. evansi, the “animal longevity of T. evansi-infected mice (in words)” value is recorded as “extend animal longevity”.

`CNC[C@H](O)[C@@H](O)[C@H](O)[C@H](O)CO.[O]=[Sb](=[O])[OH]` [glucantime]: the “reduction of the parasite burden” value in the data set on Leishmania was 100%.
